Assays:
[1] = tested on: EBV-positive lymphoblastoid cells (LCL); assay: immunofluorescence assay for BZLF1 protein in LCL cells; type: cell-based, Epstein-Barr virus; conditions: 1 μM, 48 hours
Description: LCL cells were treated with 1 μM Ara-c for 48 hours. The cells were then washed with PBS, resuspended, and plated on polylysine glass slides. Indirect immunofluorescence assays and fluorescence microscopy were performed. The slides were fixed in methanol at −20° C., washed with PBS, then incubated in primary antibody anti-ZTA (1:200) (Argene), washed with PBS, followed by secondary antibody incubation of donkey rhodamine-conjugated IgG (Jackson Pharmaceuticals, west Grove, Pa.). Mounting solution with 4′,6′-diamidino-2-phenylindole (DAPI) (Vector Shield) was used to mark the nucleus of the cell. Slides were then observed and photographed with 40× objectives on a E800 microscope (NIKON) with CCD camera (Princeton Instruments) using Metamorph software (Universial Imaging-Molecular Devices).

[2] = tested on: EBV viral DNA copy number; assay: real-time PCR for EBV viral DNA copy number (viral replication); type: cell-based, Epstein-Barr virus; conditions: for EBV viral replication (DNA copy number): LCL and SNU719 cells, 1 μM, 48 hours
Description: Genomic DNA from treated cells were extracted with the QIAamp DNA mini kit (Qiagen, CA) according to the manufacturer's instructions. PCRs were set up in a volume of 50 μL with a TaqMan PCR core reagent kit (Perkin-Elmer Corp., Branchburg, N.J.). Fluorescent probes were custom synthesized by Perkin-Elmer Applied Biosystems. PCR primers were synthesized by Gibco BRL (Frederick, Md.). Each reaction contained 5 μL of 10× buffer A (4 mM MgCl2), amplification primers (300 nM), fluorescent probe (25 nM), dATP, dCTP, and dGTP (200 μM each), dUTP (400 uM), 1.25 U of AmpliTaq Gold, and 0.5 U of AmpErase uracil N-glycosylase. Extracted genomic DNA was used for amplification. DNA amplification was carried out in a 96-well reaction plate in a Perkin-Elmer Applied Biosystems 7700 sequence detector. Each sample was analyzed in duplicate, and multiple negative water blanks were included in each analysis. A calibration curve was run in parallel and in duplicate with each analysis, with DNA extracted from the EBV-positive cell line Namalwa as a standard.
The EBV genome was quantified by real-time PCR with the ICycler system (Biorad, Hercules, Calif.). Template DNA was extracted with a mini blood DNA Kit (Qiagen, Valencia, Calif.). […]. A calibration curve was run in parallel and in duplicate with each analysis, using DNA extracted from the diploid EBV-positive cell line Namalwa containing two integrated viral genomes per cell as a standard. Amplification data were collected with an MyiQ single color real-time PCR Detector (Biorad) and analyzed with the MyiQ software developed by Biorad.

Zta promoter = type: cell-based, Epstein-Barr virus; conditions: AGS cells
EBV-TK = assay: immunoblot for EBV-TK expression; type: cell-based, Epstein-Barr virus; conditions: Western blot
Description: To detect expression of the EBV-TK or EBV-ZTA, total cell protein was first extracted by treating cells with lysis buffer (0.05 M Tris, pH 7.6, 0.15 M NaCl, 1% triton-X 100, 2 mM EDTA) containing protease inhibitors for 10 minutes at 4° C. The following reagents were added to 1 mL of lysis buffer: 2 μL leupeptin (5 mg/mL), 1 μL 0.2 M Na3VO4, 1 μL NaF, 1 μL aprotinin (10 mg/ml), 1 μL, pepstatin (2 mM), and 10 μL PMSF (100 mM) for 10 minutes at 4° C. Following centrifugation, the supernatant was collected and stored at −80° C. Protein concentration was determined with the BCA Protein Assay Kit (Pierce, Rockford, Ill.) according to the manufacturer's instructions. A 10 μg aliquot of total cellular protein was fractionated on a 7.5% SDS-polyacrylamide gel. Proteins were transferred to PROTRAN nitrocellulose membrane (Schleicher & Schuell, Keene, N.H.). The membranes were blocked with 5% blotting grade non-fat dry milk (Bio-rad, Hercules, Calif.) in PBS with 0.1% TWEEN-20 (PBS-T) at 4° C. overnight. […] The membranes were washed twice and proteins were detected with ECL Western Blotting Detection reagents (Amersham Pharmacia Biotech). […]

BZLF1 protein (ZTA) = assay: Western blot / immunoblot for ZTA (BZLF1 protein) in EBV positive cell lines; type: cell-based, Epstein-Barr virus
Description: To detect expression of the EBV-TK or EBV-ZTA, total cell protein was first extracted by treating cells with lysis buffer (0.05 M Tris, pH 7.6, 0.15 M NaCl, 1% triton-X 100, 2 mM EDTA) containing protease inhibitors for 10 minutes at 4° C. The following reagents were added to 1 mL of lysis buffer: 2 μL leupeptin (5 mg/mL), 1 μL 0.2 M Na3VO4, 1 μL NaF, 1 μL aprotinin (10 mg/ml), 1 μL, pepstatin (2 mM), and 10 μL PMSF (100 mM) for 10 minutes at 4° C. Following centrifugation, the supernatant was collected and stored at −80° C. Protein concentration was determined with the BCA Protein Assay Kit (Pierce, Rockford, Ill.) according to the manufacturer's instructions. A 10 μg aliquot of total cellular protein was fractionated on a 7.5% SDS-polyacrylamide gel. Proteins were transferred to PROTRAN nitrocellulose membrane (Schleicher & Schuell, Keene, N.H.). The membranes were blocked with 5% blotting grade non-fat dry milk (Bio-rad, Hercules, Calif.) in PBS with 0.1% TWEEN-20 (PBS-T) at 4° C. overnight. The membranes were then washed with PBS-T twice followed by incubation with 1/1,000-diluted rabbit anti-TK sera from a rabbit immunized with a synthetic EBV-TK peptide ([…]) or anti-ZTA monoclonal antibody (Argene, North Massapequa, N.Y.) at room temperature for 1 hour. After washing, the membranes were incubated with HRP-conjugated goat anti-rabbit IgG antibodies or HRP-conjugated goat anti-mouse IgG antibodies (Amersham Pharmacia Biotech, Piscataway, N.J.) at a 1/5,000 dilution in PBS-T at room temperature for 1 hour. The membranes were washed twice and proteins were detected with ECL Western Blotting Detection reagents (Amersham Pharmacia Biotech). The membranes were exposed to X-OMAT film (Kodak, Rochester, N.Y.) at room temperature.
For lytic induction studies, cells were seeded at 10^6/ml, and treated with test compounds for 48 hours. Control untreated cells were incubated in parallel.
Cells were washed with PBS twice. Total cellular protein was extracted with lysis buffer. Proteins were electrophoresed in polyacrylamide and then transferred onto a PROTRAN nitrocellulose membrane (Schleicher&Schuell, Keene, N.H.). Blots were probed with primary antibody (Ab) overnight at 4° C. HRP-conjugated secondary Ab was added after washing and detected by an enhanced chemiluminescence system (ECL) (Amersham). The following antibodies were used: anti-ZTA (Argene), anti-f3-actin (Sigma), anti-mouse (Sigma).

[3] = earlier clinical use of FIAU (toxicity); type: in vivo, humans; conditions: conservatively estimated
Description: With regard to the potential clinical use of BETR therapy, FIAU-associated toxicity warrants discussion. FIAU was previously investigated as an antiviral agent. […] In those trials, treatment for less than four weeks with a cumulative dose less than 200 mg was not associated with either clinical or biochemical evidence of toxicity. Thus, the “no-effect dose” of FIAU might be conservatively estimated to be on the order of 0.1 mg/kg per administration. […] Extrapolating from xenograft experiments, a radiotherapeutic effect is likely to be achieved at doses of FIAU that are orders of magnitude times less than the no-effect FIAU dose in humans.

[4] = cited from earlier work
[5] = serum and whole blood; 24 hour period; cited from earlier work
[6] = in vivo; cited from earlier work
AGS-BX1 cells = assay: GFP assay in AGS-BX1 cells; conditions: 1 μM

For `Nc1ccn([C@@H]2O[C@H](CO)[C@@H](O)[C@@H]2O)c(=O)n1` [Cytarabine], the “LCL cells induced into lytic infection” value [1] was 40%, the “EBV viral replication (DNA copy number)” value [2] was “did not induce” and the “EBV viral replication (DNA copy number)” value ([2]; listed as Ara-c) was “not amplified”. The “Zta promoter luciferase activity” value (Zta promoter) was “induced”, the “EBV early lytic gene TK expression” value (EBV-TK) was “induced” and the “BZLF1 protein (ZTA) expression” value (BZLF1 protein (ZTA); AKATA(-BX1), LCL and SNU719 cells, 1 μM, 48 hours) was “induced”.

For `O=c1[nH]c(=O)n([C@@H]2O[C@H](CO)[C@@H](O)[C@@H]2F)cc1I` [FIAU, 2′-fluoro-2′-deoxy-β-D-5-iodouracil-arabinofuranoside], the no-effect dose [3] is given as roughly 0.1 mg/kg per administration, the “toxicity of chronic dosing” value ([4]; earlier antiviral trials) is given as “hepatic damage and in some cases fatality” and the “cumulative dose not associated with clinical or biochemical evidence of toxicity” value ([4]; treatment for less than four weeks) is given as “less than 200 mg”. The “labeled compound remaining unchanged” value [5] was 97.8%±0.1% and the blood-brain barrier penetration [6] was “does not penetrate the blood-brain barrier”.

With `COC(=O)Nc1nc2ccc(C(=O)c3ccccc3)cc2[nH]1` [Mebendazole] the “increase of EBV viral DNA copy number” value ([2]; LCL cells and Rael cells, 1 μM for 48 hours) was 20 fold, the “induction of BZLF1 promoter” value (Zta promoter; 1 μM) was “induced” and the GFP signal (AGS-BX1 cells) was “induced GFP signal”. For the same compound, the ZTA expression (BZLF1 protein (ZTA); LCL cells and AKATA cells) was “induced”.
